Reference: patent US8952024B2, “Herbicidal pyrimidone derivatives” (E I du Pont de Nemours and Company, priority 2009, dated 2015)

Assays:
Assay in all cases: Test B pre-/postemergence plant response
Type in all cases: in vivo
[1] = test system: Italian ryegrass (Lolium multiflorum)
How it was run: (§1)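 Steps: sow seed in loam–sand soil and spray preemergence, or grow plants in peat-based medium to 1–4 leaves (2–18 cm) and spray postemergence; formulation is non-phytotoxic solvent plus surfactant; hold in greenhouse 13–15 days; score visually vs controls, 0 = no effect, 100 = complete control.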

[2] = test system: Surinam grass (Brachiaria decumbens)
How it was run: as §1

[3] = test system: corn (Zea mays)
How it was run: as §1

[4] = test system: galium (catchweed bedstraw, Galium aparine); details: Preemergence
How it was run: as §1

[5] = test system: goosegrass (Eleusine indica)
How it was run: as §1

[6] = test system: lambsquarters (Chenopodium album)
How it was run: as §1

[7] = test system: large crabgrass (Digitaria sanguinalis)
How it was run: as §1

[8] = test system: nightshade (eastern black nightshade, Solanum ptycanthum); details: Preemergence
How it was run: as §1

[9] = test system: pigweed (Amaranthus retroflexus)
How it was run: as §1

[10] = test system: sunflower (common oilseed sunflower, Helianthus annuus); details: Preemergence
How it was run: as §1

[11] = test system: woolly cupgrass (Eriochloa villosa)
How it was run: as §1

[12] = test system: goosegrass (Eleusine indica); details: Preemergence, 62 g ai/ha; scale 0 to 100, 0 no effect, 100 complete control
[13] = 250 g ai/ha, Preemergence, 0 to 100 scale
[14] = Postemergence, 31 g ai/ha, scale 0 to 100 (0 no effect, 100 complete control)
[15] = Postemergence, 62 g ai/ha, scale 0 (no effect) to 100 (complete control), 13 to 15 days
[16] = Postemergence, 125 g ai/ha, visual rating after 13 to 15 days, scale 0 (no effect) to 100 (complete control)
[17] = Postemergence, 250 g ai/ha, scale 0 to 100
[18] = Preemergence, 31 g ai/ha, scale 0 to 100 (0 no effect, 100 complete control)
[19] = Preemergence, 62 g ai/ha, scale 0 to 100, 0 no effect, 100 complete control
[20] = Preemergence, 125 g ai/ha, 0 to 100 scale
[21] = 31 g ai/ha, scale 0 to 100 (0 no effect, 100 complete control)
[22] = 62 g ai/ha, scale 0 to 100, 0 no effect, 100 complete control

## O=C1CCCC(O)=C1C(=O)c1cnc(-c2ccccc2)n(-c2ccc(F)cc2)c1=O [Compound 24]
[1]; [13]
  Plant response rating, Ryegrass, Italian: 10
[1]; [14]
  Plant response rating, Ryegrass, Italian: 0
[1]; [15]
  Plant response rating, Ryegrass, Italian: 5
[1]; [16]
  Plant response rating, Ryegrass, Italian: 40
[1]; [17]
  Ryegrass, Italian plant response rating: 50
[1]; [18]
  Plant response rating, Ryegrass, Italian: 0
[1]; [19]
  Plant response rating, Ryegrass, Italian: 0
[1]; [20]
  Ryegrass, Italian plant response rating: 10
[2]; [13]
  Plant response rating, Surinam Grass: 100
[2]; [14]
  Plant response rating, Surinam Grass: 50
[2]; [15]
  Plant response rating, Surinam Grass: 55
[2]; [16]
  Plant response rating, Surinam Grass: 60
[2]; [17]
  Surinam Grass plant response rating: 80
[2]; [18]
  Plant response rating, Surinam Grass: 65
[2]; [19]
  Plant response rating, Surinam Grass: 75
[2]; [20]
  Surinam Grass plant response rating: 95
[3]; [13]
  Plant response rating, Corn: 5
[3]; [14]
  Plant response rating, Corn: 30
[3]; [15]
  Plant response rating, Corn: 50
[3]; [16]
  Plant response rating, Corn: 85
[3]; [17]
  Corn plant response rating: 85
[3]; [18]
  Plant response rating, Corn: 0
[3]; [19]
  Plant response rating, Corn: 0
[3]; [20]
  Corn plant response rating: 0
[4]; 250 g ai/ha, 0 to 100 scale
  Plant response rating, Galium: 80
[4]; [21]
  Plant response rating, Galium: 0
[4]; [22]
  Plant response rating, Galium: 0
[4]; 125 g ai/ha, 0 to 100 scale
  Galium plant response rating: 10
[5]; [13]
  Plant response rating, Goosegrass: 100
[5]; [14]
  Plant response rating, Goosegrass: 85
[5]; [15]
  Plant response rating, Goosegrass: 85
[5]; [16]
  Plant response rating, Goosegrass: 85
[5]; [17]
  Goosegrass plant response rating: 98
[5]; [18]
  Plant response rating, Goosegrass: 85
[5]; [20]
  Goosegrass plant response rating: 100
[6]; [13]
  Plant response rating, Lambsquarters: 100
[6]; [14]
  Plant response rating, Lambsquarters: 90
[6]; [15]
  Plant response rating, Lambsquarters: 90
[6]; [16]
  Plant response rating, Lambsquarters: 90
[6]; [17]
  Lambsquarters plant response rating: 100
[6]; [18]
  Plant response rating, Lambsquarters: 98
[6]; [19]
  Plant response rating, Lambsquarters: 100
[6]; [20]
  Lambsquarters plant response rating: 100
[7]; [13]
  Plant response rating, Crabgrass, Large: 100
[7]; [14]
  Plant response rating, Crabgrass, Large: 70
[7]; [15]
  Plant response rating, Crabgrass, Large: 75
[7]; [16]
  Plant response rating, Crabgrass, Large: 95
[7]; [17]
  Crabgrass, Large plant response rating: 100
[7]; [18]
  Plant response rating, Crabgrass, Large: 90
[7]; [19]
  Plant response rating, Crabgrass, Large: 98
[7]; [20]
  Crabgrass, Large plant response rating: 100
[8]; 250 g ai/ha, 0 to 100 scale
  Plant response rating, Nightshade: 100
[8]; [21]
  Plant response rating, Nightshade: 90
[8]; [22]
  Plant response rating, Nightshade: 98
[8]; 125 g ai/ha, 0 to 100 scale
  Nightshade plant response rating: 100
[9]; [13]
  Plant response rating, Pigweed: 100
[9]; [14]
  Plant response rating, Pigweed: 70
[9]; [15]
  Plant response rating, Pigweed: 80
[9]; [16]
  Plant response rating, Pigweed: 80
[9]; [17]
  Pigweed plant response rating: 80
[9]; [18]
  Plant response rating, Pigweed: 98
[9]; [19]
  Plant response rating, Pigweed: 100
[9]; [20]
  Pigweed plant response rating: 100
[10]; 250 g ai/ha, 0 to 100 scale
  Plant response rating, Sunflower: 98
[10]; [21]
  Plant response rating, Sunflower: 85
[10]; [22]
  Plant response rating, Sunflower: 90
[10]; 125 g ai/ha, 0 to 100 scale
  Sunflower plant response rating: 95
[11]; [13]
  Plant response rating, Cupgrass, Woolly: 90
[11]; [14]
  Plant response rating, Cupgrass, Woolly: 80
[11]; [15]
  Plant response rating, Cupgrass, Woolly: 80
[11]; [16]
  Plant response rating, Cupgrass, Woolly: 95
[11]; [17]
  Cupgrass, Woolly plant response rating: 95
[11]; [18]
  Plant response rating, Cupgrass, Woolly: 5
[11]; [19]
  Plant response rating, Cupgrass, Woolly: 70
[11]; [20]
  Cupgrass, Woolly plant response rating: 85
[12]
  Plant response rating, Goosegrass: 98
